Columns and labels:
HCT-15 = assay: Cytotoxicity against human HCT-15 cells assessed as inhibition of cell growth incubated for 24 hrs by sulforhodamine B assay; assay type: functional, cell-based; details: HCT-15, 24 h
Bel-7402 = assay: Cytotoxicity against human Bel-7402 cells assessed as inhibition of cell growth incubated for 48 hrs by MTT assay; assay type: functional, cell-based; details: Bel-7402, 48 h
[1] = Cytotoxicity against human QSG7701 cells assessed as inhibition of cell growth incubated for 48 hrs by MTT assay; assay type: toxicity, cell-based
Candida albicans = assay: Antifungal activity against Candida albicans MTCC 227 assessed as zone of inhibition at 100 ug/ml by well diffusion assay; assay type: functional; details: read-out: IZ
Saccharomyces cerevisiae = assay: Antifungal activity against Saccharomyces cerevisiae MTCC 36 assessed as zone of inhibition at 100 ug/ml by well diffusion assay; assay type: functional; details: read-out: IZ
Escherichia coli = assay: Antibacterial activity against Escherichia coli MTCC 443 assessed as zone of inhibition at 50 ug/ml by well diffusion assay; assay type: functional; details: read-out: IZ
Rhizopus arrhizus = assay: Antifungal activity against Rhizopus oryzae MTCC 262 assessed as zone of inhibition at 100 ug/ml by well diffusion assay; assay type: functional; details: read-out: IZ
Pseudomonas aeruginosa = assay: Antibacterial activity against Pseudomonas aeruginosa MTCC 741 assessed as zone of inhibition at 50 ug/ml by well diffusion assay; assay type: functional; details: read-out: IZ
[2] = system: Staphylococcus epidermidis; assay: Antibacterial activity against Staphylococcus epidermidis MTCC 435 assessed as zone of inhibition at 50 ug/ml by well diffusion assay; assay type: functional; details: read-out: IZ
Aspergillus niger = assay: Antifungal activity against Aspergillus niger MTCC 282 assessed as zone of inhibition at 100 ug/ml by well diffusion assay; assay type: functional; details: read-out: IZ
Staphylococcus aureus = assay: Antibacterial activity against Staphylococcus aureus MTCC 96 assessed as zone of inhibition at 50 ug/ml by well diffusion assay; assay type: functional; details: read-out: IZ
BGC-823 = assay: Antiproliferative activity against human BGC-823 cells assessed as inhibition of cell proliferation incubated for 24 hrs by MTT assay; assay type: functional, cell-based; details: BGC-823, 24 h
L02 = assay: Antiproliferative activity against human HL7702 cells assessed as inhibition of cell proliferation incubated for 24 hrs by MTT assay; assay type: functional, cell-based; details: L02, 24 h
MCF7 [3] = assay: Antiproliferative activity against human MCF7 cells assessed as inhibition of cell proliferation incubated for 24 hrs by MTT assay; assay type: functional, cell-based; details: MCF7, 24 h
MCF7 [4] = assay: Antiproliferative activity against human MCF7 cells assessed as inhibition of cell proliferation incubated for 48 hrs by MTT assay; assay type: functional, cell-based; details: MCF7, 48 h
HeLa = assay: Antiproliferative activity against human HeLa cells assessed as inhibition of cell proliferation incubated for 48 hrs by MTT assay; assay type: functional, cell-based
SMMC-7721 = assay: Antiproliferative activity against human SMMC-7721 cells assessed as inhibition of cell proliferation incubated for 48 hrs by MTT assay; assay type: functional, cell-based; details: SMMC-7721, 48 h

SMILES	IC50 (Bel-7402) [µM]	IC50 at 48 h [1] [µM]	zone of inhibition at 100 µg/mL (Candida albicans) [mm]	zone of inhibition at 100 µg/mL (Saccharomyces cerevisiae) [mm]	zone of inhibition at 50 µg/mL (Escherichia coli) [mm]	zone of inhibition at 100 µg/mL (Rhizopus arrhizus) [mm]	zone of inhibition at 50 µg/mL (Pseudomonas aeruginosa) [mm]	zone of inhibition at 50 µg/mL [2] [mm]	zone of inhibition at 100 µg/mL (Aspergillus niger) [mm]	zone of inhibition at 50 µg/mL (Staphylococcus aureus) [mm]	further results
NCCN1C(=O)c2cccc3cccc(c23)C1=O											IC50 (HCT-15): 2.44 µM
NCCCNCCCCNCCCN1C(=O)c2cccc3cc(N)cc(c23)C1=O	1.06	> 50									
CCC1=C(C(=O)OC(F)(F)F)C(CN2C(=O)c3cccc4cccc(c34)C2=O)NC(=O)N1 (centres undefined)			12	12	12	12	12	15	12	15	
NCCCNCCCCNCCCN1C(=O)c2cccc3c(Cl)ccc(c23)C1=O	1.06	> 50									
NCCCCNCCCCNCCCCN1C(=O)c2cccc3cc([N+](=O)[O-])cc(c23)C1=O	1.06	> 50									
NCCCCNCCCCNCCCCN1C(=O)c2cccc3cc(N)cc(c23)C1=O	1.06	> 50									
CN(C)CCN1C(=O)c2cccc3c2c(cc2[nH]c(-c4c[nH]c5ccccc45)nc23)C1=O											IC50 (BGC-823): 0.7 µM; IC50 (L02): 0.7 µM; IC50 (MCF7 [3]): 0.7 µM
CCC1=C(C(=O)OC(F)(F)F)C(CN2C(=O)c3cccc4cccc(c34)C2=O)NC(=S)N1 (centres undefined)			12	12	12	12	12	15	12	15	
NCCCNCCCNCCCN1C(=O)c2cccc3c(Cl)ccc(c23)C1=O	1.06	> 50									
CCCCN1C(=O)c2cccc3cc(-n4cc(-c5ccccc5)nn4)cc(c23)C1=O											IC50 (MCF7 [4]): 0.3 µM; IC50 (HeLa): 0.3 µM; IC50 (SMMC-7721): 0.3 µM
CCCC1=C(C(=O)OC)C(CN2C(=O)c3cccc4cccc(c34)C2=O)NC(=O)N1 (centres undefined)			12	12	12	12	12	15	12	15	
Clc1ccccc1C(c1ccccc1)(c1ccccc1)n1ccnc1 [CLOTRIMAZOLE]			22	22		22			22		
NCCCNCCCCNCCCN1C(=O)c2cccc3cc([N+](=O)[O-])cc(c23)C1=O	1.06	> 50									
CCC1=C(C(=O)OC)C(CN2C(=O)c3cccc4cccc(c34)C2=O)NC(=S)N1 (centres undefined)			12	12	12	12	12	15	12	15	
O=C1c2cccc3cccc(c23)C(=O)N1CCCNCc1ccco1											IC50 (HCT-15): 2.44 µM
CCOC(=O)C1=C(CC)NC(=O)NC1CN1C(=O)c2cccc3cccc(c23)C1=O (centres undefined)			12	12	12	12	12	15	12	15	
CCCC1=C(C(=O)OC)C(CN2C(=O)c3cccc4cccc(c34)C2=O)NC(=S)N1 (centres undefined)			12	12	12	12	12	15	12	15	
CCCCN1C(=O)c2cccc3cc(-n4ccnn4)cc(c23)C1=O											IC50 (MCF7 [4]): 0.3 µM; IC50 (HeLa): 0.3 µM; IC50 (SMMC-7721): 0.3 µM
COC(=O)C1=C(C)NC(=S)NC1CN1C(=O)c2cccc3cccc(c23)C1=O (centres undefined)			12	12	12	12	12	15	12	15	
NCCCN1C(=O)c2cccc3cccc(c23)C1=O [NAPHTHALIMIDOPROPYLAMINE]											IC50 (HCT-15): 2.44 µM
NCCCNCCCNCCCN1C(=O)c2cccc3cc(N)cc(c23)C1=O	1.06	> 50									
CCC1=C(C(=O)Oc2ccccc2)C(CN2C(=O)c3cccc4cccc(c34)C2=O)NC(=S)N1 (centres undefined)			12	12	12	12	12	15	12	15	
